From publication PMC10763615, “Identification and engineering of potent cyclic peptides with selective or promiscuous binding through biochemical profiling and bioinformatic data analysis” (RSC Chemical Biology, 2023)
Where two headings read alike, the source gives them in different places. Positions of bridges follow the written chain, without caps; N, C: chain ends. Residues, ends and D or L forms follow the SMILES beside them.

Key:
Format in all cases: binding
[1] = target: T1, FGF-R4 ECD (Homo sapiens, UniProt P22455); assay: single concentration BLI of crude peptides; conditions: read-out: KD (4)
T1 construct: DNA constructs for the extracellular domain (ECD) of human FGF-; HPC4 (C); made in house; host or cells: HEK 293-6E
T1 sequence (P22455 22-369 limits assumed): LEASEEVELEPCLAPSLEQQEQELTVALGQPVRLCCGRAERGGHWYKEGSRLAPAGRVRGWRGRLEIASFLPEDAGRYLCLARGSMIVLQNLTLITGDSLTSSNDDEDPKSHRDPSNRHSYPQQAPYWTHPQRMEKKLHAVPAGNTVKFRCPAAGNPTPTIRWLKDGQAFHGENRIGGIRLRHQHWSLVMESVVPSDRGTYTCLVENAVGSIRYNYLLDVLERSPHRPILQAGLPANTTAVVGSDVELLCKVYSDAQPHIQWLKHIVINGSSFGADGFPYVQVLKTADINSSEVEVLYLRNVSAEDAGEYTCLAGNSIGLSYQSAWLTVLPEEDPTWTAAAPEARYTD
Summary of the method: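 Streptavidin biosensors carrying biotinylated FGF receptor ECD were immersed in peptide (~1 μM for crude single-point runs, a concentration series for purified peptides) and then in peptide-free buffer. KD was obtained by fitting the BLI association and dissociation curves.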

[2] = target: T2, FGF-R1C ECD (Homo sapiens, UniProt P11362); assay: biochemical; set-up: DNA constructs for the extracellular domain (ECD) of human FGF-; HPC4 (C); made in house; host or cells: HEK 293-6E
T2 sequence (P11362 22-376 limits assumed): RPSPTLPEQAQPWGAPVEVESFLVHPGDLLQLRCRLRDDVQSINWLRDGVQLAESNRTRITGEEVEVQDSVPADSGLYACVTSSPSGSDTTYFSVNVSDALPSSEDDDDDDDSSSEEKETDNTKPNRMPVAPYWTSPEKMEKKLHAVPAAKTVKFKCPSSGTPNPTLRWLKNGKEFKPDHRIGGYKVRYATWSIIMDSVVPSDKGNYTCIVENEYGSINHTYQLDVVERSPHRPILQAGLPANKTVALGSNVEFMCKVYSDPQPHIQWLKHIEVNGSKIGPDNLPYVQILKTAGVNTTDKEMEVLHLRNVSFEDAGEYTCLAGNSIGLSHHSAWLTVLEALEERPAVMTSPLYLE
Summary of the method: (§1)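 Biotinylated FGF-R ECD on streptavidin biosensors was dipped into ~1 μM crude peptide in PBS pH7.4 with 0.05% Tween-20 and 0.01% BSA for association, then into buffer for dissociation, and followed by BLI. Fitted KD values were adjusted for peptide concentration measured by UPLC-CAD.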

[3] = target: T3, FGF-R3C ECD (Homo sapiens, UniProt P22607); assay: biochemical; set-up: DNA constructs for the extracellular domain (ECD) of human FGF-; HPC4 (C); made in house; host or cells: HEK 293-6E
T3 sequence (P22607 23-375 limits assumed): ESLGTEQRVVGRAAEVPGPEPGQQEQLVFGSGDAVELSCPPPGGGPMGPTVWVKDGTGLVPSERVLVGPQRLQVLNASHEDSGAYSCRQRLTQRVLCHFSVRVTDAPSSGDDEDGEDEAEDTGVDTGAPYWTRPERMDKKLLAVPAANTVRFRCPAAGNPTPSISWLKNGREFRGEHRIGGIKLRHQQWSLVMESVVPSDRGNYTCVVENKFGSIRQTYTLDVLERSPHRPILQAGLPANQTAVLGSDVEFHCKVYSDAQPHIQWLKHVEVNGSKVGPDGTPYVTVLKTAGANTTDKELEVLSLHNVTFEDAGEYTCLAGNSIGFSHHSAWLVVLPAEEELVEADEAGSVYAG
Summary of the method: as §1

[4] = crude T18 selection 1 (1:1:1) peptides, single concentration BLI (Table S4)
[5] = crude NNK peptides, single concentration BLI (Table S3)

Row | Structure (SMILES) | Kd [1, 4] | Kd [2] | Kd [3] | Kd [1, 5]
1 | CSCC[C@H](NC(C)=O)C(=O)N[C@H]1CSSC[C@@H](C(=O)NCC(=O)N[C@@H](CO)C(=O)NCC(=O)N[C@@H](CO)C(=O)N[C@@H](CC(=O)O)C(=O)N[C@@H](Cc2ccc(O)cc2)C(=O)N[C@@H](CCCCN)C(=O)N[C@@H](CC(=O)O)C(=O)N[C@@H](CC(=O)O)C(=O)N[C@@H](CC(=O)O)C(=O)N[C@@H](CC(=O)O)C(=O)N[C@@H](CCCCN)C(N)=O)NC(=O)[C@H](CCC(N)=O)NC(=O)[C@H](CCCNC(=N)N)NC(=O)[C@H](CCCCN)NC(=O)[C@H](C(C)C)NC(=O)[C@H](CC(C)C)NC(=O)[C@H](CC(C)C)NC(=O)[C@H](Cc2ccc(O)cc2)NC(=O)[C@H](Cc2ccc(O)cc2)NC(=O)[C@H](Cc2ccccc2)NC(=O)[C@H](CC(C)C)NC(=O)[C@H](Cc2c[nH]cn2)NC(=O)[C@H](CCC(=O)O)NC1=O (Ac-MCEHLFYYLLVKRQCGSGSDYKDDDDK-NH2; disulfide 2-15) | 0.001 µM | > 10 µM | > 10 µM | –
2 | CSCC[C@H](NC(C)=O)C(=O)N[C@H]1CSSC[C@@H](C(=O)NCC(=O)N[C@@H](CO)C(=O)NCC(=O)N[C@@H](CO)C(=O)N[C@@H](CC(=O)O)C(=O)N[C@@H](Cc2ccc(O)cc2)C(=O)N[C@@H](CCCCN)C(=O)N[C@@H](CC(=O)O)C(=O)N[C@@H](CC(=O)O)C(=O)N[C@@H](CC(=O)O)C(=O)N[C@@H](CC(=O)O)C(=O)N[C@@H](CCCCN)C(N)=O)NC(=O)[C@H](Cc2c[nH]cn2)NC(=O)[C@H](CC(C)C)NC(=O)[C@H](Cc2ccc(O)cc2)NC(=O)[C@H](CC(C)C)NC(=O)[C@H](CCC(=O)O)NC(=O)[C@H](CCC(=O)O)NC(=O)[C@H](Cc2ccccc2)NC(=O)[C@H](CC(C)C)NC(=O)[C@H](Cc2ccccc2)NC(=O)[C@H](CCC(=O)O)NC(=O)[C@H](Cc2ccc(O)cc2)NC(=O)[C@H]([C@@H](C)O)NC1=O (Ac-MCTYEFLFEELYLHCGSGSDYKDDDDK-NH2; disulfide 2-15) | > 10 µM | > 10 µM | > 10 µM | –
3 | CC[C@H](C)[C@@H]1NC(=O)[C@H](CCCCN)NC(=O)[C@H](Cc2ccc(O)cc2)NC(=O)[C@H]([C@@H](C)CC)NC(=O)[C@H]([C@@H](C)O)NC(=O)[C@H]([C@@H](C)CC)NC(=O)[C@H](Cc2c[nH]cn2)NC(=O)[C@@H](NC(=O)[C@H](CCSC)NC(C)=O)CSSC[C@@H](C(=O)NCC(=O)N[C@@H](CO)C(=O)NCC(=O)N[C@@H](CO)C(=O)N[C@@H](CC(=O)O)C(=O)N[C@@H](Cc2ccc(O)cc2)C(=O)N[C@@H](CCCCN)C(=O)N[C@@H](CC(=O)O)C(=O)N[C@@H](CC(=O)O)C(=O)N[C@@H](CC(=O)O)C(=O)N[C@@H](CC(=O)O)C(=O)N[C@@H](CCCCN)C(N)=O)NC(=O)[C@H](Cc2ccc(O)cc2)NC(=O)[C@H](CCCNC(=N)N)NC(=O)[C@H](CC(C)C)NC1=O (Ac-MCHITIYKILRYCGSGSDYKDDDDK-NH2; disulfide 2-13) | – | > 10 µM | > 10 µM | 0.124 µM
4 | CSCC[C@H](NC(C)=O)C(=O)N[C@H]1CSSC[C@@H](C(=O)NCC(=O)N[C@@H](CO)C(=O)NCC(=O)N[C@@H](CO)C(=O)N[C@@H](CC(=O)O)C(=O)N[C@@H](Cc2ccc(O)cc2)C(=O)N[C@@H](CCCCN)C(=O)N[C@@H](CC(=O)O)C(=O)N[C@@H](CC(=O)O)C(=O)N[C@@H](CC(=O)O)C(=O)N[C@@H](CC(=O)O)C(=O)N[C@@H](CCCCN)C(N)=O)NC(=O)[C@H](Cc2ccccc2)NC(=O)[C@H](C(C)C)NC(=O)[C@H](CCCNC(=N)N)NC(=O)[C@H](Cc2c[nH]c3ccccc23)NC(=O)[C@H](Cc2ccc(O)cc2)NC(=O)[C@H](CCC(N)=O)NC(=O)[C@H](C(C)C)NC(=O)[C@H](Cc2ccc(O)cc2)NC(=O)[C@H](Cc2ccc(O)cc2)NC(=O)[C@@H]2CCCN2C1=O (Ac-MCPYYVQYWRVFCGSGSDYKDDDDK-NH2; disulfide 2-13) | 0.009 µM | > 10 µM | > 10 µM | –
5 | CSCC[C@H](NC(C)=O)C(=O)N[C@H]1CSSC[C@@H](C(=O)NCC(=O)N[C@@H](CO)C(=O)NCC(=O)N[C@@H](CO)C(=O)N[C@@H](CC(=O)O)C(=O)N[C@@H](Cc2ccc(O)cc2)C(=O)N[C@@H](CCCCN)C(=O)N[C@@H](CC(=O)O)C(=O)N[C@@H](CC(=O)O)C(=O)N[C@@H](CC(=O)O)C(=O)N[C@@H](CC(=O)O)C(=O)N[C@@H](CCCCN)C(N)=O)NC(=O)[C@H](Cc2ccc(O)cc2)NC(=O)[C@H](C(C)C)NC(=O)[C@H](CC(C)C)NC(=O)[C@H](C(C)C)NC(=O)[C@H](CCCCN)NC(=O)[C@H](CC(N)=O)NC(=O)[C@H](CC(C)C)NC(=O)[C@H](Cc2ccccc2)NC(=O)[C@H](CC(N)=O)NC(=O)[C@H](Cc2ccc(O)cc2)NC(=O)[C@H](Cc2ccc(O)cc2)NC1=O (Ac-MCYYNFLNKVLVYCGSGSDYKDDDDK-NH2; disulfide 2-14) | 0.008 µM | > 10 µM | > 10 µM | –
6 | CSCC[C@H](NC(C)=O)C(=O)N[C@H]1CSSC[C@@H](C(=O)NCC(=O)N[C@@H](CO)C(=O)NCC(=O)N[C@@H](CO)C(=O)N[C@@H](CCC(=O)O)C(=O)N[C@@H](CCC(=O)O)C(=O)NCC(=O)N[C@@H](CO)C(=O)NCC(=O)N[C@@H](CO)C(=O)N[C@@H](CC(=O)O)C(=O)N[C@@H](Cc2ccc(O)cc2)C(=O)N[C@@H](CCCCN)C(=O)N[C@@H](CC(=O)O)C(=O)N[C@@H](CC(=O)O)C(=O)N[C@@H](CC(=O)O)C(=O)N[C@@H](CC(=O)O)C(=O)N[C@@H](CCCCN)C(N)=O)NC(=O)[C@H](CCCCN)NC(=O)[C@H](CCCCN)NC(=O)[C@H](CCC(N)=O)NC(=O)[C@H](Cc2ccc(O)cc2)NC(=O)[C@H](CCCCN)NC(=O)[C@H](Cc2ccc(O)cc2)NC(=O)[C@H](Cc2c[nH]c3ccccc23)NC(=O)[C@H](CC(C)C)NC(=O)[C@H](C(C)C)NC(=O)[C@H]([C@@H](C)O)NC(=O)[C@H](Cc2ccc(O)cc2)NC1=O (Ac-MCYTVLWYKYQKKCGSGSEEGSGSDYKDDDDK-NH2; disulfide 2-14) | 0.001 µM | > 10 µM | > 10 µM | –
7 | CSCC[C@H](NC(C)=O)C(=O)N[C@H]1CSSC[C@@H](C(=O)NCC(=O)N[C@@H](CO)C(=O)NCC(=O)N[C@@H](CO)C(=O)N[C@@H](CC(=O)O)C(=O)N[C@@H](Cc2ccc(O)cc2)C(=O)N[C@@H](CCCCN)C(=O)N[C@@H](CC(=O)O)C(=O)N[C@@H](CC(=O)O)C(=O)N[C@@H](CC(=O)O)C(=O)N[C@@H](CC(=O)O)C(=O)N[C@@H](CCCCN)C(N)=O)NC(=O)[C@@H]2CCCN2C(=O)[C@H](CCC(N)=O)NC(=O)[C@H](Cc2c[nH]c3ccccc23)NC(=O)[C@H](CCC(=O)O)NC(=O)[C@H](CCC(=O)O)NC(=O)[C@H]([C@@H](C)O)NC(=O)[C@H](Cc2c[nH]c3ccccc23)NC(=O)[C@H](Cc2ccccc2)NC(=O)[C@H](CCCNC(=N)N)NC(=O)[C@H]([C@@H](C)O)NC(=O)[C@H](Cc2ccc(O)cc2)NC1=O (Ac-MCYTRFWTEEWQPCGSGSDYKDDDDK-NH2; disulfide 2-14) | > 10 µM | > 10 µM | > 10 µM | –
8 | CC[C@H](C)[C@@H]1NC(=O)[C@H](CCCCN)NC(=O)[C@H](Cc2ccc(O)cc2)NC(=O)[C@H](CC(C)C)NC(=O)[C@H](CC(C)C)NC(=O)[C@H](C)NC(=O)[C@H](Cc2ccccc2)NC(=O)[C@@H](NC(=O)[C@H](CCSC)NC(C)=O)CSSC[C@@H](C(=O)NCC(=O)N[C@@H](CO)C(=O)NCC(=O)N[C@@H](CO)C(=O)N[C@@H](CC(=O)O)C(=O)N[C@@H](Cc2ccc(O)cc2)C(=O)N[C@@H](CCCCN)C(=O)N[C@@H](CC(=O)O)C(=O)N[C@@H](CC(=O)O)C(=O)N[C@@H](CC(=O)O)C(=O)N[C@@H](CC(=O)O)C(=O)N[C@@H](CCCCN)C(N)=O)NC(=O)[C@H](CCCNC(=N)N)NC(=O)[C@H](CO)NC(=O)[C@H](CC(C)C)NC1=O (Ac-MCFALLYKILSRCGSGSDYKDDDDK-NH2; disulfide 2-13) | – | > 10 µM | > 10 µM | > 10 µM
